In patent US9394261B2, “Aryl amine substituted pyrimidine and quinazoline and their use as anticancer drugs” (National Yang-Ming University, priority 2012, dated 2016):
Each block holds one compound with its values, some of them ahead of it.

Legend:
Type in all cases: cell-based
[1] = test system: SK-Hep-1 cell lines (a hepatocellular carcinoma (HCC) cell); assay: MTT assay, growth inhibition of SK-Hep-1 cells; details: for IC50: SK-Hep-1 cells, 48 hours
Method: MTT assay was used to measure growth inhibition. […] MTT (3-(4,5-dimethylthiazol-2-yl)-2,5-diphenyl tetrazolium bromide) assay was performed as follow.
(§1) The effect of individual test compounds on cell viability was assessed by using the MTT in 6 replicates. Sk-Hep-1 cells were seeded and incubated in 96-well, flat-bottomed plates for 24 hours, and were exposed to various concentrations of test compounds dissolved in DMSO (final concentration, 0.1%) for 48 hours. Controls received DMSO vehicle at a concentration equal to that in drug-treated cells. The medium was removed, replaced by 200 μL of 0.5 mg/mL MTT in 10% fetal bovine serum containing DMEM (Dulbecco's Modified Eagle Medium), and cells were incubated in the carbon dioxide incubator at 37° C. for 2 hours. Supernatants were removed from the wells and the reduced MTT dye was solubilized in 100 μL/well DMSO. Absorbance at 570 nm was determined on a plate reader.
The SK-Hep1 cells were then analyzed with western blot assay and MTT assay.

CIP2A [2] = assay: western blot of CIP2A expression in SK-Hep1 cells; details: SK-Hep-1 cells, 5 μM, 30 hours (FIG. 4A)
Method: Accordingly, the pyrimidine and quinazoline derivatives above were screened by using western blot analysis for expression of CIP2A in SK-Hep1 cells. Before the western blot analysis, the SK-Hep-1 cells were maintained in DMEM supplemented with 10% FBS, 100 units/mL penicillin G, 100 μg/mL streptomycin sulfate and 25 μg/mL amphotericin B in a 37° C. humidified incubator in an atmosphere of 5% CO2 in air. In this western blot analysis, SK-Hep1 cells were respectively treated with compounds 1-24 at a concentration of 20 μM for 24 hours. In FIG. 2, the mono-substituted pyrimidine derivatives (compounds 1-5) have no appreciable change in CIP2A expression.
Cell viability, measured by MTT assay, and CIP2A expressions, analyzed by western blot, in response to compound 19 or erlotinib treatment in SK-Hep1 cell line were analyzed. SK-Hep-1 cells were treated with erlotinib and compound 19 at 2.5 and 5 μM for 24 h, respectively. The SK-Hep1 cells were then analyzed with western blot assay and MTT assay.
(§2) Next, compounds […], 19, and 22 were used to explore whether downregulation of CIP2A lead to suppression of p-Akt. FIG. 4A is the western blot analysis of the effect of the compounds 4, 19, and 22 on phosphorylation of Akt, PARP and Actin. In this western blot analysis, SK-Hep-1 cells were respectively treated with compounds 4, 19, and 22 at a concentration of 5 μM for 30 hours. […] That is, compound 19 and 22 can substantially increase apoptotic cell death to inhibit cancer growth.

p-Akt = assay: western blot of p-Akt in SK-Hep-1 cells
Method: as §2
In other words, in the present of okadaic acid, the activation of PP2A by compound 19-incuced CIP2A inactivation is blocked.

PARP = assay: western blot of PARP cleavage in SK-Hep-1 cells; details: 5 μM, 30 hours (FIG. 4A)
Method: as §2

Hep3B cell lines = assay: MTT assay, growth inhibition of Hep3B cells; details: Homo sapiens
Method: as §1
(§3) Next, compounds 19, and 34-36 were screened against a panel of Hep3B cell lines for growth-inhibitory activities. […] Compounds 87-90, 95 and 96 were screened against a panel of PLC5 cell lines for growth-inhibitory activities.

PLC5 cell lines = assay: MTT assay, growth inhibition of PLC5 cells
Method: as §1, §3

CIP2A [3] = assay: western blot of CIP2A expression in PLC/PRF/5 cells; details: 10 μM, 48 hours (FIG. 8)
Method: PLC/PRF/5 cells were exposed to compounds 88, 95 and 96 at various doses (5 and 10 μM) for 48 hours. Total lysates were subjected to CIP2A protein analysis by western blot. Actin was used as a loading control.

Compound: Clc1nccc(Nc2ccc(Oc3ccccc3)cc2)n1 [Compound 4, 2-Chloro-N-(4-phenoxyphenyl)pyrimidin-4-amine]
IC50 ([1]; Homo sapiens, SK-HEP1, 48 h): > 40 µM
growth-inhibitory activity (MTT), in words ([1]; SK-Hep-1 (HCC) cells): no activity in either assay
inhibiting CIP2A expression (CIP2A [2]): no activity
p-Akt level (p-Akt; SK-Hep-1 cells, 5 μM, 30 hours (FIG. 4A)): no activity
PARP cleavage (PARP): no activity

Compound: C#Cc1cccc(Nc2nc(Nc3cccc(C#C)c3)c3cc(OC)c(OC)cc3n2)c1 [Compound 25, N^2,N^4-Bis(3-ethynylphenyl)-6,7-dimethoxyquinazoline-2,4-diamine]
IC50 ([1]; Homo sapiens, SK-HEP1, 48 h): < 10 µM

Compound: C#Cc1cccc(Nc2nc(Nc3cccc(CC)c3)nc3cc(OC)c(OC)cc23)c1 [Compound 26, N^2-(3-ethylphenyl)-N^4-(3-ethynylphenyl)-6,7-dimethoxy quinazoline-2,4-diamine]
IC50 ([1]; Homo sapiens, SK-HEP1, 48 h): < 10 µM

Compound: C#Cc1cccc(Nc2nc(NCc3ccc(Cl)c(C(F)(F)F)c3)nc3cc(OC)c(OC)cc23)c1 [Compound 27, N^2-(4-Chloro-3-(trifluoromethyl)benzyl)-N^4-(3-ethynylphenyl)-6,7-dimethoxyquinazoline-2,4-diamine]
IC50 [1]: 2.6 µM

Compound: C#Cc1cccc(Nc2nc(NCc3cccc(OC(F)(F)F)c3)nc3cc(OC)c(OC)cc23)c1 [Compound 28, N^4-(3-Ethynylphenyl)-6,7-dimethoxy-N^2-(3-(trifluoromethoxy)benzyl)quinazoline-2,4-diamine]
IC50 [1]: 2.55 µM

Compound: C#Cc1cccc(Nc2nc(Nc3ccc(Cl)c(Oc4ccc(C#N)cc4)c3)nc3cc(OC)c(OC)cc23)c1 [Compound 87, 4-(2-chloro-5-((4-((3-ethynylphenyl)amino)-6,7-dimethoxyquinazolin-2-yl)amino)phenoxy)benzonitrile]
IC50 (PLC5 cell lines; PLC5, PLC5 cells): 8.2 µM

Compound: C#Cc1cccc(Nc2nc(Nc3ccc(Cl)c(Oc4ccc(C#N)c(Cl)c4)c3)nc3cc(OC)c(OC)cc23)c1 [Compound 88, 2-chloro-4-(2-chloro-5-((4-((3-ethynylphenyl)amino)-6,7-dimethoxyquinazolin-2-yl)amino)phenoxy)benzonitrile]
IC50 (PLC5 cell lines; PLC5, PLC5 cells): 12.7 µM
inhibition of CIP2A expression (CIP2A [3]): high degree of repression of CIP2A

Compound: C#Cc1cccc(Nc2nc(Nc3ccc(Cl)c(Oc4ccc(C#N)c(C)c4)c3)nc3cc(OC)c(OC)cc23)c1 [Compound 89, 4-(2-chloro-5-((4-((3-ethynylphenyl)amino)-6,7-dimethoxyquinazolin-2-yl)amino)phenoxy)-2-methylbenzonitrile]
IC50 (PLC5 cell lines; PLC5, PLC5 cells): 20.2 µM

Compound: C#Cc1cccc(Nc2nc(Nc3ccc(Oc4ccc(Cl)c(Cl)c4)cc3)nc3cc(OC)c(OC)cc23)c1 [Compound 90, N^2-(4-(3,4-dichlorophenoxyl)phenyl)-N^4-(3-ethynylphenyl)-6,7-dimethoxyquinazoline-2,4-diamine]
IC50 (PLC5 cell lines; PLC5, PLC5 cells): 0.77 µM

Compound: C#Cc1cccc(Nc2nc(Nc3ccc(Oc4ccc(Cl)c(Cl)c4)cc3)nc3cc(OC)c(OC)cc23)c1 [Compound 95, N^2-(4-(3,4-dichlorophenoxyl)phenyl)-N^4-(3-ethynylphenyl)-6,7-dimethoxyquinazoline-2,4-diamine]
IC50 (PLC5 cell lines; PLC5 cells): 0.95 µM
inhibition of CIP2A expression (CIP2A [3]): high degree of repression of CIP2A

Compound: C#Cc1cccc(Nc2nc(Nc3ccc(Oc4ccc(Cl)cc4)cc3)nc3cc(OC)c(OC)cc23)c1 [Compound 96, N^2-(4-(4-chlorophenoxyl)phenyl)-N^4-(3-ethynylphenyl)-6,7-dimethoxyquinazoline-2,4-diamine]
IC50 (PLC5 cell lines; PLC5, PLC5 cells): 0.61 µM

Compound: C=C1[C@@H](O)[C@@H]2O[C@]3(CC[C@H](/C=C/[C@@H](C)[C@@H]4CC(C)=C[C@@]5(O[C@H](C[C@@](C)(O)C(=O)O)CC[C@H]5O)O4)O3)CC[C@H]2O[C@@H]1[C@@H](O)C[C@H](C)[C@H]1O[C@@]2(CCCCO2)CC[C@H]1C [okadaic acid, reference compound]
p-Akt level in compound 19 treated cells (p-Akt; SK-Hep-1 cells treated with compound 19 (FIG. 5B)): reversed p-Akt level

More lines, now with the values ahead:

IC50 ([1]; Homo sapiens, SK-HEP1, 48 h): < 10 µM
Compound: C#Cc1cccc(Nc2nc(NCc3ccc(OC)c(OC)c3)nc3cc(OC)c(OC)cc23)c1 [Compound 29, N^2-(3,4-dimethoxybenzyl)-N^4-(3-ethynylphenyl)-6,7-dimethoxyquinazoline-2,4-diamine]

IC50 ([1]; Homo sapiens, SK-HEP1, 48 h): < 10 µM
Compound: C#Cc1cccc(Nc2nc(Nc3cccc(NS(=O)(=O)c4ccccc4)c3)nc3cc(OC)c(OC)cc23)c1 [Compound 30, N-(3-(4-(3-ethynylphenylamino)-6,7-dimethoxyquinazolin-2-ylamino)phenyl)benzenesulfonamide]

IC50 [1]: 1.95 µM
Compound: C#Cc1cccc(Nc2nc(Nc3cccc(NS(=O)(=O)c4cccc(C(F)(F)F)c4)c3)nc3cc(OC)c(OC)cc23)c1 [Compound 31, N-(3-(4-(3-Ethynylphenylamino)-6,7-dimethoxyquinazolin-2-ylamino)phenyl)-3-(trifluoromethyl)benzenesulfonamide]

IC50 ([1]; Homo sapiens, SK-HEP1, 48 h): < 10 µM
Compound: C#Cc1cccc(Nc2nc(Nc3cccc(NS(=O)(=O)c4ccc(C(F)(F)F)cc4Br)c3)nc3cc(OC)c(OC)cc23)c1 [Compound 32, 2-Bromo-N-(3-(4-(3-ethynylphenylamino)-6,7-dimethoxyquinazolin-2-ylamino)phenyl)-4-(trifluoromethyl)benzenesulfonamide]

IC50 [1]: 2.65 µM
Compound: C#Cc1cccc(Nc2nc(Nc3cccc(NC(=O)c4ccccc4)c3)nc3cc(OC)c(OC)cc23)c1 [Compound 33, N-(3-(4-(3-ethynylphenylamino)-6,7-dimethoxyquinazolin-2-ylamino)phenyl)benzamide]

IC50 (Hep3B cell lines): 3.35 µM
Compound: C#Cc1cccc(Nc2nc(Nc3cccc(NCc4ccccc4)c3)nc3cc(OC)c(OC)cc23)c1 [Compound 34, N^2-(3-(benzylamino)phenyl)-N^4-(3-ethynylphenyl)-6,7-dimethoxyquinazoline-2,4-diamine]

IC50 (Hep3B cell lines): 3.27 µM
Compound: C#Cc1cccc(Nc2nc(Nc3cccc(NC(=O)c4cc(C(F)(F)F)cc(C(F)(F)F)c4)c3)nc3cc(OC)c(OC)cc23)c1 [Compound 35, N-(3-(4-(3-ethynylphenylamino)-6,7-dimethoxyquinazolin-2-ylamino)phenyl)-3,5-bis(trifluoromethyl)benzamide]

IC50 (Hep3B cell lines): 3.38 µM
Compound: C#Cc1cccc(Nc2nc(Nc3cccc(NC(=O)c4cccc(C(F)(F)F)c4)c3)nc3cc(OC)c(OC)cc23)c1 [Compound 36, N-(3-(4-(3-ethynylphenylamino)-6,7-dimethoxyquinazolin-2-ylamino)phenyl)-3-(trifluoromethyl)benzamide]
